According to patent US12269831B2, “Modulators of cystic fibrosis transmembrane conductance regulator” (Vertex Pharmaceuticals Incorporated, priority 2020, dated 2025):
Read-outs that look alike come from different tables or passages of the source.

Key:
[1] = 14-membered ring
[2] = target: T1, CFTR (F508del/MF-HBE cells) (Homo sapiens, UniProt P13569, DEL508-508); assay: Ussing chamber assay of CFTR-mediated short-circuit currents (potentiator identification); format: cell-based; settings: CFTR-mediated Isc, 18-24 h incubation at 37° C. with 10 μM (14S)-8-[3-(2-{dispiro[2.0.2.1]heptan-7-yl}ethoxy)-1H-pyrazol-1-yl]-... corrector, 20% human serum
T1 construct: human bronchial epithelial (HBE) cells derived from CF subjects heterozygous for F508del and a minimal function CFTR mutation (F508del/MF-HBE); endogenous in cells; host or cells: primary human bronchial epithelial (HBE) cells from CF subjects, genotype F508del/minimal function
T1 sequence (P13569 with tags, fused parts or gaps DEL508-508): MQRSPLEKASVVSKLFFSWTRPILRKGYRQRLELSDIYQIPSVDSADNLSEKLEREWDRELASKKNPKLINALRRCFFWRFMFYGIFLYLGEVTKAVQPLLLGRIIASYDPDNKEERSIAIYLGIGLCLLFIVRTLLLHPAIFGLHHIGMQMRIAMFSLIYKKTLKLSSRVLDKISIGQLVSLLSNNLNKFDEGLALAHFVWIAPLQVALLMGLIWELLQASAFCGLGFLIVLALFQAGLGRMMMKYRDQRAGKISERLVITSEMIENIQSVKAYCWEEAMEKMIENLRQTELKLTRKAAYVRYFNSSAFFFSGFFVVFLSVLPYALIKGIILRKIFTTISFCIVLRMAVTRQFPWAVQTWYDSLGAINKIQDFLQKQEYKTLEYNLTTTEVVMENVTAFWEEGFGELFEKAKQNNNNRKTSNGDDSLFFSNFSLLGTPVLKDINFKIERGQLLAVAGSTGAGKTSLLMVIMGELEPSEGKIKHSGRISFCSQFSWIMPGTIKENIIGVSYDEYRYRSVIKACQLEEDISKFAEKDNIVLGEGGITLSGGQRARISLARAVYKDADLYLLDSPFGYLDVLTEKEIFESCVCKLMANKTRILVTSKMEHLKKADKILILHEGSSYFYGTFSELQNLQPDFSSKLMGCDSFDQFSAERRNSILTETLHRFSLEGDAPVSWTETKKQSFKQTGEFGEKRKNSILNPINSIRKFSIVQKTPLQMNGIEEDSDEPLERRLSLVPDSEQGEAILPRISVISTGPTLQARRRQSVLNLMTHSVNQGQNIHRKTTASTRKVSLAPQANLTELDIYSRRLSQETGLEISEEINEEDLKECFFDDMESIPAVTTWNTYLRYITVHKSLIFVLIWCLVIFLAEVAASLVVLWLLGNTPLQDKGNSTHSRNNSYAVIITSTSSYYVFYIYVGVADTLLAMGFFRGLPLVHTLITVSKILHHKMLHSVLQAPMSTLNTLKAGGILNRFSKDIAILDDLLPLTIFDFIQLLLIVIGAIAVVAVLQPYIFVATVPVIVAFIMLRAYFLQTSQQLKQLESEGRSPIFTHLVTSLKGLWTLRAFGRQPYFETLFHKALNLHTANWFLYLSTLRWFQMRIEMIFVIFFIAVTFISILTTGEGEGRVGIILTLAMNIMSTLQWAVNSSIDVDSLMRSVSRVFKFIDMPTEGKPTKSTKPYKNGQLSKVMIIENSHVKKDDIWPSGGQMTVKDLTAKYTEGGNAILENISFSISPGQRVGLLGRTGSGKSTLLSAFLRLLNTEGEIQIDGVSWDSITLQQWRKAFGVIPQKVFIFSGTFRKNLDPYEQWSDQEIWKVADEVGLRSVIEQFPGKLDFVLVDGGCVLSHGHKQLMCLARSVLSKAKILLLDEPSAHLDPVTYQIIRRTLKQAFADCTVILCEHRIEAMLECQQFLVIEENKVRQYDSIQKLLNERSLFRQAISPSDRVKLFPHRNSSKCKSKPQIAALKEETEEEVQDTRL
Method: Ussing Chamber Assay of CFTR-Mediated Short-Circuit Currents
Ussing chamber experiments were performed using human bronchial epithelial (HBE) cells derived from CF subjects heterozygous for F508del and a minimal function CFTR mutation (F508del/MF-HBE) and cultured as previously described (Neuberger T, Burton B, Clark H, Van Goor F Methods Mol Biol 2011:741:39-54). After four days the apical media was removed, and the cells were grown at an air liquid interface for >14 days prior to use.
To isolate the CFTR-mediated short-circuit (Isc) current, F508del/MF-HBE grown on Costar® Snapwell™ cell culture inserts were mounted in an Ussing chamber and the transepithelial ISC was measured under voltage-clamp recording conditions (Vhold=0 mV) at 37° C. The basolateral solution contained (in mM) 145 NaCl, 0.83 K2HPO4, 3.3 KH2PO4, 1.2 MgCl2, 1.2 CaCl2, 10 Glucose, 10 HEPES (pH adjusted to 7.4 with NaOH) and the apical solution contained (in mM) 145 NaGluconate, 1.2 MgCl2, 1.2 CaCl2, 10 glucose, 10 HEPES (pH adjusted to 7.4 with NaOH) and 30 μM amiloride to block the epithelial sodium channel. Forskolin (20 μM) was added to the apical surface to activate CFTR, followed by apical addition of a CFTR inhibitor cocktail consisting of BPO, GlyH-101 and CFTR inhibitor 172 (each at 20 μM final assay concentration) to specifically isolate CFTR currents. The CFTR-mediated Isc (μA/cm^2) for each condition was determined from the peak forskolin response to the steady-state current following inhibition.
Identification of Potentiator Compounds
The activity of the CFTR potentiator compounds on the CFTR-mediated Isc was determined in Ussing chamber studies as described above. The F508del/MF-HBE cell cultures were incubated with the potentiator compounds at a range of concentrations in combination with 10 μM (14S)-8-[3-(2-{dispiro[2.0.2.1]heptan-7-yl}ethoxy)-1H-pyrazol-1-yl]-12,12-dimethyl-2λ^6-thia-3,9,11,18,23-pentaazatetracyclo[17.3.1.111,14.05,10]tetracosa-1(22),5,7,9,19(23),20-hexaene-2,2,4-trione for 18-24 hours at 37° C. and in the presence of 20% human serum. The concentration of potentiator compounds and (14S)-8-[3-(2-{dispiro[2.0.2.1]heptan-7-yl}ethoxy)-1H-pyrazol-1-yl]-12,12-dimethyl-2λ^6-thia-3,9,11,18,23-pentaazatetracyclo[17.3.1.111,14.05,10]tetracosa-1(22),5,7,9,19(23),20-hexaene-2,2,4-trione used during the 18-24 hours incubations was kept constant throughout the Ussing chamber measurement of the CFTR-mediated Isc to ensure compounds were present throughout the entire experiment. The efficacy and potency of the putative F508del potentiators was compared to that of the known Vertex potentiator, ivacaftor (N-[2,4-bis(1,1-dimethylethyl)-5-hydroxyphenyl]-1,4-dihydro-4-oxoquinoline-3-carboxamide).

`C[C@@H]1CCCOCC(OCc2ccccc2)(C(F)(F)F)C2=NN=C(O2)c2nc(c(C(F)(F)F)cc2N(C(=O)OC(C)(C)C)C(=O)OC(C)(C)C)O1` (stereo partly shown) gave a ring closure, isolated yield ([1]; from C[C@H](O)CCCOCC(OCc1ccccc1)(c1nnc(-c2nc(O)c(C(F)(F)F)cc2N(C(=O)OC(C)(C)C)C(=O)OC(C)(C)C)o1)C(F)(F)F, ether bond, PPh3/DIAD, toluene, 6.1 mM, 6.0 h) of 59%.
Compound `C[C@@H]1CCOCCC(OCc2ccccc2)(C(F)(F)F)C2=NN=C(O2)c2nc(c(C(F)(F)F)cc2N(C(=O)OC(C)(C)C)C(=O)OC(C)(C)C)O1` (stereo partly shown) has a ring closure, isolated yield ([1]; from C[C@H](O)CCOCCC(OCc1ccccc1)(c1nnc(-c2nc(O)c(C(F)(F)F)cc2N(C(=O)OC(C)(C)C)C(=O)OC(C)(C)C)o1)C(F)(F)F, ether bond, PPh3/DIAD, toluene, 10.2 mM, 7.0 h) of 57%.
`C[C@@H]1COCCC[C@](OCc2ccccc2)(C(F)(F)F)C2=NN=C(O2)c2nc(c(C(F)(F)F)cc2N(C(=O)OC(C)(C)C)C(=O)OC(C)(C)C)O1` gave a ring closure, isolated yield ([1]; from tert-butyl N-[2-[5-[(1R)-1-benzyloxy-4-[(25)-2-hydroxypropoxy]-1-(trifluoromethyl)butyl]-1,3,4-oxadiazol-2-yl]-6-hydroxy-5-(trifluoromethyl)-3-pyridyl]-N-tert-butoxycarbonyl-carbamate, ether bond, PPh3/DIAD, THF, 15.0 mM) of 50%.
Compound `CC(C)(C)OC(=O)N(C(=O)OC(C)(C)C)c1cc(C(F)(F)F)c2nc1-c1nnc(o1)[C@@](OCc1ccccc1)(C(F)(F)F)CCC=CCC(Cc1ccc(F)cc1)O2` (mixture of isomers) has a ring closure, isolated yield ([1]; from C=CCC[C@@](OCc1ccccc1)(c1nnc(-c2nc(OC(CC=C)Cc3ccc(F)cc3)c(C(F)(F)F)cc2N(C(=O)OC(C)(C)C)C(=O)OC(C)(C)C)o1)C(F)(F)F, rcm bond, Zhan-1B, DCE, 2.35 mM, 60.0 °C, 1.0 h) of 63%.
`CC(C)(C)OC(=O)N(C(=O)OC(C)(C)C)c1cc(C(F)(F)F)c2nc1-c1nnc(o1)[C@@](OCc1ccccc1)(C(F)(F)F)CCC=CC[C@@H](COCc1ccccc1)O2` (mixture of isomers) showed a ring closure, isolated yield ([1]; from C=CCC[C@@](OCc1ccccc1)(c1nnc(-c2nc(O[C@@H](CC=C)COCc3ccccc3)c(C(F)(F)F)cc2N(C(=O)OC(C)(C)C)C(=O)OC(C)(C)C)o1)C(F)(F)F, rcm bond, Zhan-1B, DCE, 2.78 mM, 60.0 °C, 5.5 h) of 45%.
In the case of `CC(C)(C)OC(=O)Nc1cc(C(F)(F)F)c2nc1-c1nnc(o1)[C@@](OCc1ccccc1)(C(F)(F)F)CC=CCCCO2` (mixture of isomers), the ring closure, isolated yield ([1]; from C=CCCCOc1nc(-c2nnc([C@@](CC=C)(OCc3ccccc3)C(F)(F)F)o2)c(NC(=O)OC(C)(C)C)cc1C(F)(F)F, rcm bond, Zhan-1B, DCE, 6.7 mM, 60.0 °C, 4.0 h) is reported as 65%.
In the case of `CC(C)C1CC=CCC[C@](OCc2ccccc2)(C(F)(F)F)C2=NN=C(O2)c2nc(c(C(F)(F)F)cc2N(C(=O)OC(C)(C)C)C(=O)OC(C)(C)C)O1` (mixture of isomers), the ring closure, isolated yield ([1]; from C=CCC[C@@](OCc1ccccc1)(c1nnc(-c2nc(OC(CC=C)C(C)C)c(C(F)(F)F)cc2N(C(=O)OC(C)(C)C)C(=O)OC(C)(C)C)o1)C(F)(F)F, rcm bond, Zhan-1B, DCE, 2.09 mM, 60.0 °C, 6.0 h) is reported as 61%.
For `CC1(C)CC=CC[C@](OCc2ccccc2)(C(F)(F)F)C2=NN=C(O2)c2nc(c(C(F)(F)F)cc2N(C(=O)OC(C)(C)C)C(=O)OC(C)(C)C)OC1` (mixture of isomers), the ring closure, isolated yield ([1]; from C=CCC(C)(C)COc1nc(-c2nnc([C@@](CC=C)(OCc3ccccc3)C(F)(F)F)o2)c(N(C(=O)OC(C)(C)C)C(=O)OC(C)(C)C)cc1C(F)(F)F, rcm bond, Zhan-1B, toluene, 2.2 mM, 110.0 °C, 4.0 h) was 10%.
With `CC1CC=CCCC(OCc2ccccc2)(C(F)(F)F)C2=NN=C(O2)c2nc(c(C(F)(F)F)cc2NC(=O)OC(C)(C)C)O1` (mixture of isomers) the ring closure, isolated yield ([1]; from C=CCCC(OCc1ccccc1)(c1nnc(-c2nc(OC(C)CC=C)c(C(F)(F)F)cc2NC(=O)OC(C)(C)C)o1)C(F)(F)F, rcm bond, Zhan-1B, DCE, 4.57 mM, 70.0 °C, 16.0 h) was 36%.
`CCC1CCC=CC[C@](OCc2ccccc2)(C(F)(F)F)C2=NN=C(O2)c2nc(c(C(F)(F)F)cc2N(C(=O)OC(C)(C)C)C(=O)OC(C)(C)C)O1` (mixture of isomers) showed a ring closure, isolated yield ([1]; from C=CCCC(CC)Oc1nc(-c2nnc([C@@](CC=C)(OCc3ccccc3)C(F)(F)F)o2)c(N(C(=O)OC(C)(C)C)C(=O)OC(C)(C)C)cc1C(F)(F)F, rcm bond, Zhan-1B, DCE, 5.4 mM, 70.0 °C) of 91%.
In the case of `C[C@@H]1CC=CCC[C@](OCc2ccccc2)(C(F)(F)F)C2=NN=C(O2)c2nc(c(C(F)(F)F)cc2Cl)O1` (mixture of isomers), the ring closure, isolated yield ([1]; from C=CCC[C@@](OCc1ccccc1)(c1nnc(-c2nc(O[C@H](C)CC=C)c(C(F)(F)F)cc2Br)o1)C(F)(F)F, rcm bond, Zhan-1B, DCE, 2.2 mM, 60.0 °C, 2.0 h) is reported as 47%.
Compound `C[C@@H]1CCC=CC(F)(F)C(OCc2ccccc2)C2=NN=C(O2)c2nc(c(C(F)(F)F)cc2[N+](=O)[O-])O1` (mixture of isomers) has a ring closure, isolated yield ([1]; from C=CCC[C@@H](C)Oc1nc(-c2nnc(C(OCc3ccccc3)C(F)(F)C=C)o2)c([N+](=O)[O-])cc1C(F)(F)F, rcm bond, Grubbs II, DCE, 1.8 mM, 75.0 °C, 0.92 h) of 30%.
`C[C@@H]1CCC=CC(O)C(OCc2ccccc2)(C(F)(F)F)C2=NN=C(O2)c2nc(c(C(F)(F)F)cc2N)O1` (mixture of isomers) showed a ring closure, isolated yield ([1]; from C=CCC[C@@H](C)Oc1nc(-c2nnc(C(OCc3ccccc3)(C(O)C=C)C(F)(F)F)o2)c(N)cc1C(F)(F)F, rcm bond, Zhan-1B, DCE, 3.1 mM, 70.0 °C, 3.5 h) of 76%.
In the case of `C[C@H]1CC=CCC[C@](OCc2ccccc2)(C(F)(F)F)C2=NN=C(O2)c2nc(c(C(F)(F)F)cc2NC(=O)OC(C)(C)C)O1` (mixture of isomers), the ring closure, isolated yield ([1]; from C=CCC[C@@](OCc1ccccc1)(c1nnc(-c2nc(O[C@@H](C)CC=C)c(C(F)(F)F)cc2NC(=O)OC(C)(C)C)o1)C(F)(F)F, rcm bond, Hoveyda-Grubbs II, toluene, 5.08 mM, 100.0 °C, 1.0 h) is reported as 22%.
For `C[C@H]1Oc2nc(c(NC(=O)OC(C)(C)C)cc2C(F)(F)F)C2=NN=C(O2)[C@@](OCc2ccccc2)(C(F)(F)F)CC=CCC1OCc1ccccc1` (mixture of isomers), the ring closure, isolated yield ([1]; from C=CCC(OCc1ccccc1)[C@@H](C)Oc1nc(-c2nnc([C@@](CC=C)(OCc3ccccc3)C(F)(F)F)o2)c(NC(=O)OC(C)(C)C)cc1C(F)(F)F, rcm bond, Zhan-1B, DCE, 6.94 mM, 70.0 °C, 48.0 h) was 56%.
Work on `O=[N+]([O-])c1cc(C(F)(F)F)c2nc1-c1nnc(o1)[C@@](OCc1ccccc1)(C(F)(F)F)CCC=CCC(C1CC1)O2` (mixture of isomers) yielded a ring closure, isolated yield ([1]; from C=CCC[C@@](OCc1ccccc1)(c1nnc(-c2nc(OC(CC=C)C3CC3)c(C(F)(F)F)cc2[N+](=O)[O-])o1)C(F)(F)F, rcm bond, Zhan-1B, DCE, 1.6 mM, 70.0 °C, 2.25 h) of 59%.
In the case of `[2H]C1CC[C@@H](C)Oc2nc(c(N)cc2C(F)(F)F)C2=NN=C(O2)[C@@](O)(C(F)(F)F)CC1[2H]` (stereo partly drawn) [Compound 44, (6R,12R)-17-amino-8,9-dideuterio-12-methyl-6,15-bis(trifluoromethyl)-13,19-dioxa-3,4,18-triazatricyclo[12.3.1.12,5]nonadeca-1(17),2,4,14(18),15-pentaen-6-ol], the EC50 [2] is reported as under 500 nM.
`C[C@@H]1COCCC[C@](O)(C(F)(F)F)C2=NN=C(O2)c2nc(c(C(F)(F)F)cc2N)O1` [Compound 59, (6R,12R)-17-amino-12-methyl-6,15-bis(trifluoromethyl)-10,13,19-trioxa-3,4,18-triazatricyclo[12.3.1.12,5]nonadeca-1(18),2,4,14,16-pentaen-6-ol] showed an EC50 [2] of over 1000 nM.
For `CC1(C)CCCC[C@](O)(C(F)(F)F)C2=NN=C(O2)c2nc(c(C(F)(F)F)cc2N)OC1` [Compound 61, (6R)-17-amino-11,11-dimethyl-6,15-bis(trifluoromethyl)-13,19-dioxa-3,4,18-triazatricyclo[12.3.1.12,5]nonadeca-1(18),2,4,14,16-pentaen-6-ol], the EC50 [2] was under 500 nM.
